In article PMC10283505, “CVM-1118 (foslinanib), a 2-phenyl-4-quinolone derivative, promotes apoptosis and inhibits vasculogenic mimicry via targeting TRAP1” (Pathology and Oncology Research, 2023):

Key:
HCT-116 = assay: In vivo vasculogenic mimicry (CD31−/RBC+ channels) in orthotopic HCT-116 xenograft; set-up: species or system BALB/c nude mice; conditions: 100 mg/kg oral, excised colon tumor tissues, vs vehicle
Experimental: This animal study was contracted to CrownBio International R&D Center (Beijing, China) and was conducted under the approval of the Animal Ethics Committee at CrownBio in compliance with institutional and national guidelines. Seven-to eight-week-old female BALB/c nude mice were obtained from HFK Bio-Technology Co., Ltd. (Beijing, China). HCT-116 cells (2 × 10^6) were suspended in 20 μL PBS and then injected into the cecal wall. Treatment began on day 14 after cell inoculation when tumor reached ∼100 mm^3 measured in a satellite group of three mice. Treatment groups include vehicle control [PEG400:pH 10 carbonate buffer (40:60)], CVM-1118 at 20, 50, and 100 mg/kg given orally daily for 28 days, and CVM-1118 at 20 mg/kg given as intravenous injection once every 2 days for 7 times. Tumor volumes were measured at the end of in-life study on day 43. […] Briefly, rabbit anti-human CD31 antibody (Abcam) was used as the primary Ab for the staining and the number of channels with CD31+/red blood cell (RBC)+, or CD31−/RBC+ were counted based on five light fields (×200) on the whole section of each sample in each group under microscope. […] Statistical analysis for VM formation was evaluated using Mann-Whitney test. All data were analyzed using GraphPad Prism 9.5.

NCI/ADR-RES = assay: NCI 60 cytotoxicity screening; assay type: cell-based; conditions: Homo sapiens, Ovarian
CEACAM5 = molecular target: T1, CEACAM5 (Homo sapiens, UniProt P06731); assay: Surface plasmon resonance (Biacore); assay type: binding; conditions: CEACAM5, SPR
T1 sequence (P06731 35-702): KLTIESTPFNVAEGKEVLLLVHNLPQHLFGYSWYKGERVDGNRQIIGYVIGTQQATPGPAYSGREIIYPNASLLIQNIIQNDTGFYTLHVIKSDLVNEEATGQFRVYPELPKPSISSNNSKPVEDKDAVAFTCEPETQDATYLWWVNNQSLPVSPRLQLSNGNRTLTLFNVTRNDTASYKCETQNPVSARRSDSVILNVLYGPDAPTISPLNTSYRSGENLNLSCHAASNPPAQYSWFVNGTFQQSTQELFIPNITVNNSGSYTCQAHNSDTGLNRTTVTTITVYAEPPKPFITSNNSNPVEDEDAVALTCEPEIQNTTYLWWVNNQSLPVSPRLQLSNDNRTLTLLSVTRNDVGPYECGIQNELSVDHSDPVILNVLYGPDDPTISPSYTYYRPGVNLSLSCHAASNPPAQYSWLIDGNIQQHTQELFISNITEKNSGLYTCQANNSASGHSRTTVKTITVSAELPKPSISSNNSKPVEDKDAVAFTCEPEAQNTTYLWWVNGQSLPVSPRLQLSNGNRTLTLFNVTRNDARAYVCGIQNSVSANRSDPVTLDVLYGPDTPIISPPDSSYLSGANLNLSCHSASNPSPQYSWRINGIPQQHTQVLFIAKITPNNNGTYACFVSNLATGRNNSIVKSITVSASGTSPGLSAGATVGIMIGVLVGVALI

MDA-MB-231 = assay: Succinate level (Abcam kit, hypoxia); assay type: cell-based, human; conditions: MDA-MB-231, 100 nM, 72 h, vs vehicle control
Experimental: (§1) Succinate levels in the cells were assessed using the Abcam assay kit (ab204718). Cells were grown under hypoxic conditions (1% O2) at 37°C using a ProOx P110 Oxygen Controller (BioSpherix) and hypoxia chamber to establish a consistent and steady expression of HIF-1α in these cells for the experiments. At 80% confluence, cells were rinsed with phosphate buffered saline (PBS; 137 mM NaCl/2.7 mM KCl/10 mM Na2HPO4/1.8 mM KH2PO4, pH 7.4), then harvested by scrapping into a modified radio-immunoprecipitation assay (RIPA) buffer (100 mM Tris-HCl, 150 mM NaCl, 1% deoxycholate, 1% Triton X-100, 0.1% SDS, pH 7.4) plus protease inhibitor cocktail (Complete Mini; Roche) using 100 μL buffer per 1 × 10^6 cells. After sonication using a Fisher sonic dismembrator with microprobe (Fisher Scientific; five pulses at 2 s intervals) and centrifugation at 13,000 rpm for 30 min, the protein lysates (supernatants) were recovered, and protein concentrations determined using a bicinchoninic acid (BCA) assay (Bio-Rad). The samples were then deproteinated using Abcam 10 kDa Spin Columns (ab93349; which reduced the protein concentration by about 90%) and the samples were standardized at <10 μg of protein per sample per 50 μL of assay volume (as directed by the Abcam technical response team for working with these samples). The concentration of succinate (nmol/μL or μmol/mL or […]) for each sample was calculated after subtracting a background control (which was the sample run with assay buffer in place of the succinate converter component to account for and subtract any contaminating signal generated by NADH), as follows: Succinate = (A/B) × D; where: A = Amount of succinate (succinic acid) from the Standard Curve; B = Sample volume added into the reaction well (μL); D = Sample dilution factor. Two separate experiments were performed for each cell line.

SKOV3 = assay: Succinate level (Abcam kit, hypoxia); assay type: cell-based, human; conditions: SKOV3, 100 nM, 72 h, vs vehicle control
Experimental: as §1

COLO205 = assay: Succinate level (Abcam kit, hypoxia); assay type: cell-based, human; conditions: COLO205, 100 nM, 72 h, vs vehicle control
Experimental: as §1

SK-MEL28 = assay: Succinate level (Abcam kit, hypoxia); assay type: cell-based, human; conditions: SK-MEL28, 100 nM, 72 h, vs vehicle control
Experimental: as §1

SR = assay: NCI 60 cytotoxicity screening; assay type: cell-based; conditions: Homo sapiens, Leukemia
OVCAR-4 = assay: NCI 60 cytotoxicity screening; assay type: cell-based; conditions: Homo sapiens; OVCAR-4, Ovarian
IGROV1 = assay: NCI 60 cytotoxicity screening; assay type: cell-based; conditions: Homo sapiens, IGROV-1; IGROV1, Ovarian
CAKI-1 = assay: NCI 60 cytotoxicity screening; assay type: cell-based; conditions: Homo sapiens; CAKI-1, Renal

Compound | reduction of VM network formation (VM channels) (HCT-116) | GI50 (NCI/ADR-RES) | Association (ka) (CEACAM5) | Dissociation (kd) (CEACAM5) | KD (kd/ka) (CEACAM5) | reduction of succinate levels (MDA-MB-231) | reduction of succinate levels (SKOV3) | reduction of succinate levels (COLO205) | reduction of succinate levels (SK-MEL28) | GI50 (SR) | GI50 (OVCAR-4) | GI50 (IGROV1) | GI50 (CAKI-1)
COc1ccc2[nH]c(-c3cccc(F)c3)cc(=O)c2c1OP(=O)(O)O [CVM-1118] | 85% |  |  |  |  |  |  |  |  |  |  |  | 
COc1ccc2[nH]c(-c3cccc(F)c3)cc(=O)c2c1O [CVM-1125] |  | 20.8 nM | No interaction | No interaction | No interaction | 20% | 35% | 18% | 23% | 12 nM | 43.6 nM | 27 nM | 46.7 nM
